Compound in one test: C=CCn1c(=O)c2cnc(Nc3ccc(N4CCN(C)CC4)cc3)nc2n1-c1cccc(C(C)(C)O)n1 [MK-1775]
Briefly: surviving fraction relative to DMSO-only wells; higher = less growth inhibition. The note with it: exposure time: 5 days. A digest of the protocol:
(§1)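 Continuous five-day exposure to inhibitors at 0.5, 1, 5, 10, 50, 100, 500 and 1000 nM started 24 hours after log-phase tumour cell lines were seeded at 250–500 cells per well in 384-well plates. Luminescence was read after 10 minutes at room temperature. Viability is given as surviving fraction, meaning CellTiter-Glo luminescence normalised to the median of DMSO-only wells.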

Compound in another test: Cc1ccc(NC(=O)c2ccc(CN3CCN(C)CC3)cc2)cc1Nc1nccc(-c2cccnc2)n1 [IMATINIB]
The description is as above. As to conditions: exposure time: 5 days. The procedure, abridged:
as §1

± gives the standard deviation of the averaged measurements.

As for MG63 BONE, the surviving fraction in the test with MK-1775 (0.5 nM) turned out to be 1.02 ± 0.033; with MK-1775 (1 nM) it was 0.999 ± 0.026; with MK-1775 (5 nM) it was 1.07 ± 0.027; with MK-1775 (10 nM) it was 1.056 ± 0.0072; with MK-1775 (50 nM) it was 1.06 ± 0.053; with MK-1775 (100 nM) it was 1 ± 0.068. The surviving fraction with MK-1775 (500 nM) is 0.244 ± 0.025; in the test with MK-1775 (1000 nM) it was 0.121 ± 0.0076; with IMATINIB (0.5 nM), 1.08 ± 0.028; with IMATINIB (1 nM), 1.05 ± 0.029; with IMATINIB (5 nM) it was 1.1 ± 0.03; with IMATINIB (10 nM), 1.09 ± 0.035. Also, the values for the surviving fraction with IMATINIB (50 nM) and with IMATINIB (100 nM) were 1.09 ± 0.053 and 1.08 ± 0.034, respectively.
As to SCC36 HEADNECK, the surviving fraction was 1.05 ± 0.066 in the test with MK-1775 (0.5 nM); 1.08 ± 0.12 with MK-1775 (1 nM); 1.18 ± 0.065 with MK-1775 (5 nM); 0.995 ± 0.053 with MK-1775 (10 nM); 0.906 ± 0.035 in the test with MK-1775 (50 nM); 0.739 ± 0.037 with MK-1775 (100 nM). In addition, the surviving fraction in the test with MK-1775 (500 nM) is 0.323 ± 0.029; with MK-1775 (1000 nM), 0.228 ± 0.021; with IMATINIB (0.5 nM), 1.03 ± 0.11; with IMATINIB (1 nM), 1.04 ± 0.18; with IMATINIB (5 nM) it was 1.09 ± 0.12; in the test with IMATINIB (50 nM), 1.11 ± 0.024. Moreover, in the test with IMATINIB (500 nM), the surviving fraction turned out to be 0.886 ± 0.066.
Regarding MDAMB453 BREAST, the surviving fraction with MK-1775 (0.5 nM) is 1.09 ± 0.021; in the test with MK-1775 (1 nM) it was 1.07 ± 0.034; in the test with MK-1775 (5 nM), 1.13 ± 0.048; in the test with MK-1775 (10 nM), 1.06 ± 0.052; in the test with MK-1775 (50 nM) it was 1.14 ± 0.076; with MK-1775 (100 nM) it was 0.959 ± 0.1. In addition, the surviving fraction was found to be 0.214 ± 0.041 with MK-1775 (500 nM); 0.161 ± 0.021 with MK-1775 (1000 nM); 1.1 ± 0.086 with IMATINIB (1 nM); 1.13 ± 0.051 in the test with IMATINIB (5 nM); 1.12 ± 0.1 in the test with IMATINIB (10 nM); 1.18 ± 0.034 with IMATINIB (50 nM). In addition, the surviving fraction with IMATINIB (100 nM) is 1.06 ± 0.034; with IMATINIB (500 nM) it was 1.082 ± 0.0067; with IMATINIB (1000 nM) it was 1.04 ± 0.011.
In the case of HCC1395 BREAST, the surviving fraction in the test with MK-1775 (0.5 nM) amounted to 0.885 ± 0.071; with MK-1775 (1 nM), 1.169 ± 0.0022; with MK-1775 (5 nM), 1.03 ± 0.2; with MK-1775 (10 nM) it was 1.14 ± 0.12; with MK-1775 (50 nM), 0.935 ± 0.1; with MK-1775 (100 nM) it was 0.931 ± 0.12. In addition, the surviving fraction with MK-1775 (500 nM) came to 0.741 ± 0.11; with MK-1775 (1000 nM), 0.618 ± 0.083; with IMATINIB (0.5 nM), 1.23 ± 0.023; with IMATINIB (1 nM) it was 1.06 ± 0.11; with IMATINIB (5 nM), 1.24 ± 0.097; with IMATINIB (10 nM) it was 1.36 ± 0.13. For the same test system, the surviving fraction with IMATINIB (50 nM) was 1.19 ± 0.16; with IMATINIB (100 nM) it was 1.36 ± 0.049; with IMATINIB (500 nM), 1.15 ± 0.068; with IMATINIB (1000 nM) it was 1.11 ± 0.29.
For HOSMNG BONE, the surviving fraction with MK-1775 (0.5 nM) is 1.04 ± 0.027; with MK-1775 (1 nM) it was 0.978 ± 0.061; with MK-1775 (5 nM), 0.935 ± 0.091; in the test with MK-1775 (10 nM), 0.977 ± 0.11; in the test with MK-1775 (50 nM), 1.01 ± 0.072; with MK-1775 (100 nM), 1.07 ± 0.063. Also, the surviving fraction with MK-1775 (500 nM) stood at 0.143 ± 0.013; with MK-1775 (1000 nM), 0.059 ± 0.0076; in the test with IMATINIB (0.5 nM), 1.04 ± 0.12; in the test with IMATINIB (1 nM) it was 1.01 ± 0.067; with IMATINIB (5 nM), 0.994 ± 0.085; with IMATINIB (10 nM), 1 ± 0.019. Besides, the surviving fraction in the test with IMATINIB (50 nM) came out at 1.09 ± 0.1; with IMATINIB (100 nM), 1.14 ± 0.073; with IMATINIB (1000 nM), 1.07 ± 0.14.
As for SG32 HEADNECK, the surviving fraction in the test with MK-1775 (0.5 nM) came to 1.25 ± 0.072; with MK-1775 (1 nM), 1.43 ± 0.26; with MK-1775 (5 nM), 1.13 ± 0.19; in the test with MK-1775 (10 nM), 1.14 ± 0.2; in the test with MK-1775 (50 nM), 0.852 ± 0.074; with MK-1775 (100 nM) it was 0.476 ± 0.037. Also, the surviving fraction with MK-1775 (500 nM) was determined as 0.22 ± 0.038; with MK-1775 (1000 nM), 0.19 ± 0.0027; in the test with IMATINIB (5 nM) it was 1.2 ± 0.18; with IMATINIB (100 nM) it was 1 ± 0.14; in the test with IMATINIB (500 nM), 1.17 ± 0.052; in the test with IMATINIB (1000 nM), 1.21 ± 0.16.
As to MFM223 BREAST, the surviving fraction with MK-1775 (0.5 nM) turned out to be 1.16 ± 0.057; with MK-1775 (1 nM), 1.14 ± 0.04; with MK-1775 (5 nM), 1.06 ± 0.067; with MK-1775 (10 nM), 1.14 ± 0.036; in the test with MK-1775 (50 nM), 0.958 ± 0.045; with MK-1775 (100 nM) it was 0.545 ± 0.05. Further, the surviving fraction worked out at 0.161 ± 0.0064 with MK-1775 (500 nM); 0.192 ± 0.02 with MK-1775 (1000 nM); 1.27 ± 0.17 in the test with IMATINIB (0.5 nM); 1.24 ± 0.041 with IMATINIB (1 nM); 1.13 ± 0.057 with IMATINIB (5 nM); 1.19 ± 0.14 with IMATINIB (10 nM). The surviving fraction is 1.19 ± 0.063 in the test with IMATINIB (50 nM), 1.17 ± 0.1 in the test with IMATINIB (100 nM), 1.18 ± 0.055 in the test with IMATINIB (500 nM) and 1.15 ± 0.052 in the test with IMATINIB (1000 nM).
Turning to MDAMB134 BREAST, the surviving fraction with MK-1775 (0.5 nM) came out at 1.11 ± 0.1; in the test with MK-1775 (1 nM), 1.02 ± 0.086; in the test with MK-1775 (5 nM), 1.17 ± 0.039; with MK-1775 (10 nM) it was 1.075 ± 0.0064; with MK-1775 (50 nM), 1.08 ± 0.064; with MK-1775 (100 nM) it was 0.994 ± 0.047. For the same test system, the surviving fraction with MK-1775 (500 nM) turned out to be 0.752 ± 0.035; with MK-1775 (1000 nM), 0.733 ± 0.0099; with IMATINIB (0.5 nM), 0.896 ± 0.08; with IMATINIB (10 nM), 0.86 ± 0.057; in the test with IMATINIB (50 nM) it was 1.02 ± 0.093; with IMATINIB (100 nM) it was 1.11 ± 0.024. In addition, the surviving fraction with IMATINIB (500 nM) is 0.994 ± 0.17; with IMATINIB (1000 nM), 0.814 ± 0.15.
As to H23 LUNG, the surviving fraction in the test with MK-1775 (0.5 nM) amounted to 1.04 ± 0.018; with MK-1775 (1 nM) it was 1.02 ± 0.041; in the test with MK-1775 (5 nM), 1.04 ± 0.06; with MK-1775 (10 nM) it was 1.03 ± 0.1; with MK-1775 (50 nM), 0.86 ± 0.054; with MK-1775 (100 nM), 0.632 ± 0.045. For the same test system, the surviving fraction in the test with MK-1775 (500 nM) is 0.285 ± 0.023; with MK-1775 (1000 nM) it was 0.209 ± 0.034; in the test with IMATINIB (0.5 nM), 1.04 ± 0.049; in the test with IMATINIB (1 nM) it was 1.01 ± 0.021; with IMATINIB (5 nM), 1.06 ± 0.031; with IMATINIB (10 nM), 1.07 ± 0.0035. The surviving fraction with IMATINIB (50 nM) came to 1.08 ± 0.07; with IMATINIB (100 nM), 1.13 ± 0.061; with IMATINIB (500 nM), 1.12 ± 0.066; with IMATINIB (1000 nM), 1.13 ± 0.065.

For the origin of these results see the supplement of paper PMC6045584.
